The record followed here is US20260365692A1, “COMPOSITIONS COMPRISING PROTEINS DISSOLVED IN FLUORINATED SOLVENTS, AND METHODS OF MAKING AND USING THE SAME” (priority 2022, published 2026).

A short description of data set [1]: β-Gal activity after bleach exposure. The class given is physicochemical. To be noted: β-Gal in PFOc. The method, then:
FIGS. 54A-54C depict the relative activity of the β-Gal protein dispersed in PBS or PFOc solvents without and with contamination by (FIG. 54A) proteinase K, (FIG. 54B) bleach or (FIG. 54C) hydrochloric acid. Data shown as average±s.d. of n=3 technical replicates. Statistical significance between conditions is indicated by a line using unpaired Student's t-test with n.s.=not significant, * p<0.05, ** p<0.01, and *** p<0.001.
Here, stock of lyophilized β-Gal was prepared then dispersed in PBS or PFOc. A small volumetric quantity (1% v/v) of 10% bleach was added to the protein samples. Immediately, an equal volume of PBS containing 4 mg/mL ONPG substrate was added to the sample and incubated for 5 minutes to allow for complete substrate conversion. Last, absorbance was taken at 420 nm on the eluted samples, and relative activity was calculated by normalizing absorbance of converted ONPG in oxidizer-treated samples against their corresponding untreated group. […] Here, stock of lyophilized B-Gal was prepared then dispersed in PBS or PFOc. A small volumetric quantity (4% v/v) of 0.1 M HCl was added to the protein samples. After 30 seconds incubation, PBS containing 4 mg/mL ONPG was added to each of the samples to elute and start substrate conversion. After 3-minute conversion, the eluted samples were retrieved, and absorbance was read at 420 nm. […]

Data set [2] is described as follows: Thermal stability of proteins in PFNA/PFOc (bioactivity after heating). The class given is physicochemical. To be noted: PFNA/PFOc mixture compared to aqueous solution, 30 min heating. As for the experimental part:
FIGS. 16A-16C depict that the thermal stability of β-gal, GFP, and Trypsin is enhanced when the proteins are dissolved in a PFNA/PFOc mixture, compared to aqueous solutions of the proteins.
PFNA enhanced thermal stability in PFOc Differential scanning calorimetry (DSC) measurements were performed on 5 test proteins dissolved in either PBS (Aq.) or Perfluorooctane (PFOc). PFNA dispersant was added only for the PFOc conditions. DSC was performed at 2 °C/min ramp from 40 °C-100 °C. Melting temperature (Tm) was determined based on positive inflection of heat capacity curve, indicating protein unfolding (FIG. 15). Change in melting temperature (ATm (°C)) represented the difference in Tm between aqueous (Aq.) and PFOc data. Tm for GFP in PFOc could not be achieved at the maximum temperature of 100 °C for the DSC experiments. Each protein was dissolved in PBS (Aq.) or PFNA/PFOc mixture. Dissolved proteins were heated to 75 °C (β-gal), 90 °C (GFP) or 80 °C (Trypsin); treatment temperatures were determined based on aqueous melting temperatures for each protein. Positive controls were maintained at room temperature (25 °C). […] Bioactivity was evaluated then via fluorescence measurements for GFP, or using colorimetric substrate conversion assays (ONPG for β-gal, BAEE for Trypsin). […]

The next data set concerns the target human hemoglobin (Hb) (Homo sapiens, UniProt P68871+P69905). Nature of the data set: Circular dichroism with PFNA, Hb. From the text: (§1) FIGS. 14A-14L depict circular dichroism spectra of Hb (FIG. 14A), GFP (FIG. 14B), BSA (FIG. 14C), β-Gal (FIG. 14D), rabbit serum IgG (FIG. 14E), transferrin (FIG. 14F), and urease (FIG. 14G) in the absence (black line) or presence (dashed lines) of PFNA. Increasing dash sequence indicated higher concentration of PFNA. FIG. 14H: Change in molar ellipticity at 216 nm (Δθ216) of PFNA-treated proteins, relative to native controls, as a function of increasing ligand concentration. FIG. 14I: Percentage change in secondary structural motifs of Hb, β-Gal and IgG between the native protein and 1 mM PFNA treated samples. β-sheet structures were further differentiated into parallel and antiparallel conformations. Hb, β-Gal and IgG were prioritized for analysis based on their significant spectral shift in the presence of 1 mM PFNA. FIGS. 14J-14L: Sensograms for BSA (FIG. 14J), β-gal (FIG. 14K), and IgG (FIG. 14L) showing relative response (R.U.) at 10, 25, 50, 75, and 100 μM.
(§2) To explore PFNA-mediated changes in protein structure, dose-response circular dichroism (CD) studies were performed (FIG. 14A-14G). […] Remarkably, these structural changes endured even at sub-stoichiometric PFNA:protein ratios (see 0.001 mM PFNA in […]; protein concentration was constant at 0.01 mM).
In general terms: Circular dichroism is the unequal absorption of left and right circularly polarised light.

Data set [3] relates to green fluorescent protein (GFP). Kind of data set: Circular dichroism with PFNA, GFP. To be noted: increasing PFNA concentration.
Text: as §1, §2

The subject of the next data set is eGFP-PC9 lung cells. Nature of the data set: Imaging of eGFP-PC9 cells with PFNA. The class given is cell-based, human. To be noted: PFNA-treated cells. The method, then: FIG. 21 depicts confocal micrographs of eGFP-PC9 cells in the absence (top) and presence (bottom) of PFNA.
FIG. 22 depicts an analysis of average cellular fluorescence (in relative fluorescence units, RFU) for cells treated without/with PFNA for 1, 2 and 5 hours. Statistical significance was determined using unpaired t-test, with n.s.=not significant, * p<0.05, ** p<0.01 and *** p<0.001.
FIG. 23 depicts analysis of cellular fluorescent area (in relative area units, RAU) for cells treated without/with PFNA for 1, 2 and 5 hours. Statistical significance was determined using unpaired t-test, with n.s.=not significant, * p<0.05, ** p<0.01 and *** p<0.001.
Imaging studies were performed to interpret the effect of PFNA exposure on the transport of endogenous proteins in cells. For these experiments, stably transfected eGFP-PC9 lung cells were prepared to track the time dependent sub-cellular localization of eGFP as a model protein target (FIGS. 21, […]).

The next data set deals with A549 cells. Nature of the data set: Protein uptake in A549 cells, Cy5-labeled BSA. The class given is cell-based, human. The settings on record: PFNA. As for the experimental part: FIGS. 18A-18B depict the uptake of Cy5-labeled BSA in human lung A549 cells after 2 and 24 hours of incubation in the absence/presence of PFNA. Results are shown in relative fluorescence units (RFU).
Multiplexed in vitro assays were employed to probe the influence of PFNA interactions on protein uptake and transport in cells. A549 and PC9 human lung cells were prioritized for these assays given that pulmonary tissue is a primary site of perfluoroalkyl bioaccumulation in humans (Reference: 63). Before initiating experiments, cellular toxicity assays established a maximum tolerated dose of PFNA to avoid confounding protein transport experiments with substantive cell death. Protein uptake was then studied using green fluorescent protein (GFP) and bovine serum albumin (BSACy5) as model biologics that employ non-specific pinocytic mechanisms for cellular entry.

The target in data set [4] is bovine serum albumin (BSA) (Bos taurus, UniProt P02769). Kind of data set: Circular dichroism with PFNA, BSA.
Text: as §1, §2

Bounds are passed on as bounds.

Chain of human hemoglobin (Hb) (P69905 whole entry): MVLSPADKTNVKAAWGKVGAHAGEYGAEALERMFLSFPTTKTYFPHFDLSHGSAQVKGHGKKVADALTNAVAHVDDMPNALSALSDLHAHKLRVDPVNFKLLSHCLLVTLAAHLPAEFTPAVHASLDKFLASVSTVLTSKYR
Chain of human hemoglobin (Hb) (P68871 whole entry): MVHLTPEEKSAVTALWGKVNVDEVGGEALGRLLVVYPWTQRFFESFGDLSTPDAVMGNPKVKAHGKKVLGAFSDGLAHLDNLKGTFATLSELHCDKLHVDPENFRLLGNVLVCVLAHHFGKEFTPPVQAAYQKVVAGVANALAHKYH
Chain of bovine serum albumin (BSA) (P02769 25-607): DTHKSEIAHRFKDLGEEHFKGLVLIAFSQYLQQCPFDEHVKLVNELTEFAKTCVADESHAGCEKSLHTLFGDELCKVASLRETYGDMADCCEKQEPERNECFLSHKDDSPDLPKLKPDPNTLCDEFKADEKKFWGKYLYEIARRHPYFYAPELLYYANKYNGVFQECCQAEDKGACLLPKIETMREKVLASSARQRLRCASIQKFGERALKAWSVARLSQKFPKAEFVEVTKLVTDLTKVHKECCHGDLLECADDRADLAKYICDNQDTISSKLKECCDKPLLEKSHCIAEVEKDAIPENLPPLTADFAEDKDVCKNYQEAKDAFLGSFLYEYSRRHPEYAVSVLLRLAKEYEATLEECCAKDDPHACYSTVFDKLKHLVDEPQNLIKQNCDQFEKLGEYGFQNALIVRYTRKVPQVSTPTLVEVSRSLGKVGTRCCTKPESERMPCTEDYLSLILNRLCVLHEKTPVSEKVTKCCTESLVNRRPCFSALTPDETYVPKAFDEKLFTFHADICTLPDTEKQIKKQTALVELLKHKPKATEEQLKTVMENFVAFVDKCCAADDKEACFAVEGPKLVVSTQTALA

“β-Gal: β-Galactosidase (β-Gal), dissolved in PBS/saline or dispersed in PFOc”: the “β-Gal activity versus PBS controls” value in data set [1] (bleach) is “statistically higher than that of PBS controls”. The loss in functionality in data set [1] (bleach (1% v/v of 10% bleach), few minutes) is reported as no less than 50%. For the same compound, the thermal stability entry in data set [2] is given as “enhanced”.
On to `O=C(O)C(F)(F)C(F)(F)C(F)(F)C(F)(F)C(F)(F)C(F)(F)C(F)(F)C(F)(F)F` [Compound 7, perfluoronanonic acid], for which the “CD structural change, Hb” value on human hemoglobin (Hb) (0.001-0.1 mM PFNA) is listed as “induced non-native α-helical structure”; at human hemoglobin (Hb) (1 mM PFNA), “slight loss of signal”. For the same compound, the “CD structural change, GFP (θ216 nm)” value in data set [3] was “slight enhancement of β-sheet structure”. Further, the intracellular protein localization entry in the data set on eGFP-PC9 lung cells is listed as “remained relatively unchanged”. For the same compound, in the data set with eGFP-PC9 lung cells (particularly 1 hour), the eGFP expression entry is recorded as “significant reduction”. Also, the BSA internalization entry in the data set with A549 cells was “less affected”. Also, the “CD structural profile, BSA” value in data set [4] is on record as “remained largely unchanged”.
